Data on 3 substances can be found in publication PMC6397244, “Peptide Assembly on the Membrane Determines the HIV-1 Inhibitory Activity of Dual-Targeting Fusion Inhibitor Peptides” (Scientific Reports, 2019).

One may read the EC50 as the concentration at which the effect is half-maximal.

Ends that are not written are not given here.

Series [1] is described as follows: Trp quenching by brominated phospholipids. It counts as physicochemical. To be noted: 2 µM peptide, 200 µM Br-PC vs DOPC vesicles, 5 min, 25 °C, excitation 290 nm; three repeated assays. How it is done: Quenching of Trp by brominated phospholipid was performed using liposomes composed of 1,2-di-(9-10-dibromo) stearoyl-sn-glycero-3-phosphocoline (Br-PC) (Avanti Polar Lipids). As previously reported, this lipid has similar properties as unsaturated phosphatidylcholine chains due to the bulkiness of bromine residues. For this reason, liposomes of 1,2-dioleoyl-sn-glycero-3-phosphocholine (DOPC) were used for comparing the Trp fluorescence of peptides with brominated liposomes. Liposomes were prepared following the same procedure as described above. Comparatively, a concentration of 2 µM of peptides was added to 200 µM of lipid vesicles either BrPC or DOPC. After 5 min of incubation at 25 °C, fluorescence spectra were recorded with an excitation wavelength of 290 nm and emission from 300 to 450 nm. The fractional quenching was calculated as reported in ref. [33] by (F0 − F)/F0, where F0 is the fluorescence intensity at 340 nm for peptides added to DOPC liposomes and F for peptides added to Br-PC liposomes.

The next series deals with HIV-1 FP. To be noted: donor:acceptor 1:1 ratio; cited from earlier work. An excerpt: The energy transfer efficiency between FP and E1 peptide at a donor:acceptor 1:1 ratio, was around 30% while the energy transfer efficiency between FP and DT-P2 was only 5%.
Series [2] is described as follows: membrane affinity / partition, intrinsic Trp fluorescence on titration with POPC liposomes. The format is physicochemical. The settings on record: 5 µM peptide, POPC LUVs 0.05–0.6 mM, 20 °C; for apparent mole fraction partition coefficient KX: intrinsic Trp fluorescence (ex 280 nm), PBS 0.01 M pH 7.4 (method) / HEPES, triplicate. How it is done: Unilamellar vesicles (LUV) composed of the negatively charged phospholipid 1-palmitoyl-2-oleoyl-sn-glycero-3-phospho-(1′-rac-glycerol) (POPG) or zwitteronic phospholipid palmitoyl-2-oleoyl-sn-glycero-3-phosphocholine (POPC) (both from Avanti Polar-Lipids) were prepared as model membranes. Lipids (10 mM) were dissolved in chloroform/methanol (2/1, v/v) solution. The solvent was evaporated under reduced pressure. A buffer solution of PBS 0.01 M pH 7.4 was added to the previously obtained lipid film to prompt the spontaneous formation of multilamellar vesicles that were subjected to a process of 10 freeze and thaw cycles. The liposomes were then subjected to an extrusion process through 100-nm pore-sized polycarbonate filters in a high-pressure extruder.
To carry out membrane partition studies with DT-peptides, emission fluorescence spectra were recorded for DT-peptides in PBS (0.01 M, pH 7.4) at 20 °C using an excitation wavelength of 280 nm. Changes in the tryptophan (Trp) fluorescence spectra were monitored after incubation of 5 µM of each peptide with increasing concentrations of liposomes. The suspensions were continuously stirred and were left to equilibrate for 10 min before recording the spectra. Fluorescence intensities were corrected by subtraction of the vesicle blank. A lipid titration of N-acetyltryptophanamide (NATA) was carried out at the same time. As described in ref. [31], the apparent mole fraction partition coefficients were determined by fitting the binding curves to the equation: F=fboundFmax+(1−fbound)F0 where F is the relative fluorescence intensity, F0 is the fluorescence intensity in the absence of lipid. fbound=KxL/(W+KxL) where Kx is the mole fraction partition coefficient, L is the lipid concentration, and W is the molar concentration of water (55.3 M at 25 °C).

Series [3] relates to CM235 (HIV pseudotype, Env pCM235/GS). The settings on record: CM235 (R5, subtype A/E); TZM-bl, peptide 1 h before and during infection, luciferase read-out 48 h after infection; duplicates. An excerpt: (§1) The anti-HIV activities of DT-peptides and E1 were comparatively tested against a set of viral pseudotypes carrying HIV envelopes from HIV subtype A, B, C and A/E (Table 1) in the TZM-bl reporter cell line.
(§2) The preparation of the HIV-1 Env pseudotyped virus stocks in a GCLP- (Good Clinical Laboratory Practice) compliant manner occurred as described previously. This includes the pseudoviruses listed in Table 2 with the Env sequences HXB2, AC10.0.29, Q461.e2, Q23.17, CAP210.2.00.E8 and CM235.c11 as well as the Env deficient backbone plasmid pSG3ΔEnv. Within this study the titration assay to determine the virus dilution at a relative luminescence unit (RLU) of 150,000 was performed according to the method described before[34]–[36] and the luminescence was measured using the Infinite F200 microplate reader.
(§3) Peptides were tested for their antiviral activities against a panel of HIV pseudotypes carrying different HIV envelope proteins (Table 2) in the TZM-bl indicator cell line. Briefly, 10-fold serial dilutions of the compounds (0.001–10 µM) were incubated in duplicates with the cells in 96-well plates. 1 h after incubation, cell culture medium was replaced and cells were infected with the different pseudotypes together with fresh compounds. […] 48 h after infection, cells were washed and luciferase was quantified using the Britelite Plus Luciferase Assay System (PerkinElmer). Luciferase values were normalized to DMSO control. Cell viability was estimated in parallel in non-infected TZM-bl cells with the Cell Titer Glo ATPase kit (Promega). CC50 and EC50 values ± SEM were calculated with GraphPad Prism, using the built-in function log (inhibitor) vs. normalized response.

Series [4] deals with Q461 (HIV pseudotype, Env pQ461.e2). The settings on record: Q461 (R5, subtype A); TZM-bl, peptide 1 h before and during infection, luciferase read-out 48 h after infection; duplicates.
From the text: as §1, §2, §3

For series [5], the system named is HXB2 (HIV pseudotype, Env pHXB2). The settings on record: HXB2 (X4, subtype B); TZM-bl, peptide 1 h before and during infection, luciferase read-out 48 h after infection; duplicates.
From the text: as §1, §2, §3

For series [6], the system named is CAP210 (HIV pseudotype, Env pCAP210.2). The settings on record: CAP210 (R5, subtype C); TZM-bl, peptide 1 h before and during infection, luciferase read-out 48 h after infection; duplicates.
From the text: as §1, §2, §3

The subject of series [7] is Q23 (HIV pseudotype, Env pQ23.17). The settings on record: Q23 (R5, subtype A); TZM-bl, peptide 1 h before and during infection, luciferase read-out 48 h after infection; duplicates.
From the text: as §1, §2, §3

Series [8] concerns AC10 (HIV pseudotype, Env pAC10.0). To be noted: AC10 (R5, subtype B); TZM-bl, peptide 1 h before and during infection, luciferase read-out 48 h after infection; duplicates.
From the text: as §1, §2, §3

Series [9] is described as follows: 1D 1H NMR in DPC micelles. The format is physicochemical. The settings on record: NMR sample. The method, then:
Nuclear magnetic resonance (NMR) spectra were recorded at 300 K on a Bruker Avance III console (Bruker Biospin, Germany) combined with a […] Oxford Instruments magnet (^1H 500 MHz), equipped with a 5 mm inverse cryogenically cooled triple-resonance TCI (^1H, ^13C, ^15N, and ^2H lock) cryoprobe with a z-axis magnetic field-gradient capability. For proton spectra acquisition, peptide samples were prepared by dissolving first lyophilized peptide in a small amount of DMSO-d6 and next, dissolution in detergent solution containing perdeuterated DPC-d38 (final molar ratio ~ 1:100, peptide/DPC 0.5:50 mM). […] The diffusion coefficient, D, was determined by fitting diffusion weighted intensities of selected peaks or integrals over a chosen range to the following equation1 I=I0exp{−γ^2g^2δ^2(Δ−δ/3)D}, where γ is the gyromagnetic ratio of proton and g, δ and Δ are the amplitude, duration and separation of the single pair of gradient pulses, respectively. […] The reason for DPC diffusion coefficients being higher than peptides values is likely due to a surplus of free monomeric DPC molecules (below cmc), so the diffusion coefficient measured for DPC has a relevant contribution of […], while the observed peptide resonances (and their diffusion coefficient) mainly correspond to DPC-bound peptide.

Consider “WILEYLWKVPFDFWRGVI-NH2 (C-terminus assumed) [E1]”, for which the “Trp quenching by brominated lipid vesicles / accessibility for the lipids (in words)” value in series [1] is listed as “highly quenched demonstrating greater peptide accessibility to the hydrophobic inner part of the lipid vesicles”. Also, in the series with HIV-1 FP, the “energy transfer efficiency between FP and peptide” value is reported as “around 30%”. The “Trp fluorescence upon titration with POPC liposomes / membrane partition (in words)” value in [2] (excitation 280 nm) is on record as “partitioned stronger into lipid vesicles”. The “apparent mole fraction partition coefficient KX” value in series [2] is recorded as 8.2 × 10^5.
Regarding “LCDCPNGPWVWVPAFCQAVGGGGSWILEYLWKVPFDFWRGVI-NH2 (cysteines drawn unpaired) [DT-P1]”, the EC50 in [3] is 18.9 µM; in [4], 24.5 µM; in series [5], 7.63 µM; in [6] it was 12.9 µM; in series [7] it was 21.6 µM; in series [8], 20.2 µM. Further, the “effect of higher DMSO-d6 (from 3 to 13%) to increase solubility” value in series [9] is recorded as “no improvement was observed”.
Consider “WILEYLWKVPFDFWRGVIGGGSLCDCPNGPWVWVPAFCQAVG-NH2 (cysteines drawn unpaired) [DT-P2]”, for which the EC50 in series [3] turned out to be 17.9 µM; in series [4] it was 24.5 µM; in series [5] it was 10.8 µM; in series [6] it was 9.4 µM; in [7], 15.9 µM; in series [8], 14 µM. The “apparent mole fraction partition coefficient KX” value in [2] is on record as 2.4 × 10^5.
